Test results reported in patent US20030199431A1, “Modified peptide nucleic acid (PNA) molecules” (priority 1999, published 2003).
Where two headings read alike, the source gives them in different places.

Experiments:
E. coli K12 [1] = type: cell-based, Escherichia coli
test culture = type: cell-based
E. coli K12 [2] = type: cell-based, Escherichia coli; remark: listed apart in the source
Protocol: To test the effect of a Peptide without a PNA, peptide no. 2339, H-KFFKFFKFF-OH (SEQ ID NO: 1), was added to E. coli K12 in 10% and 100% medium (Mueller-Hinton broth).

Substance: H-LLKKLAKALKG-ahex-ado-CCA TCT AAT CCT-NH2 [PNA 228]
- Bacterial growth inhibition (E. coli K12 [1]): − (key: +: Total inhibition of bacterial growth.; (+): Significantly extended lagphase, (more than five times); −: Lagphase extended less than five times;)

Substance: H-KFFKFFKFF-OH [Peptide 2339]
- Bacterial growth inhibition (test culture): − (key: +: Total inhibition of bacterial growth.; (+): Significantly extended lagphase, (more than five times); −: Lagphase extended less than five times;)
- Bacterial growth inhibition (E. coli K12 [2]; Peptide 100 nM, 4.0 × 10^3 bacteria/ml, 10% medium): − (Lagphase extended less than five times;)
- Bacterial growth inhibition (E. coli K12 [2]; Peptide 100 nM, 4.0 × 10^4 bacteria/ml, 10% medium): − (Lagphase extended less than five times;)
- Bacterial growth inhibition (E. coli K12 [2]; Peptide 100 nM, 7.9 × 10^3 bacteria/ml, 10% medium): − (Lagphase extended less than five times;)
- Bacterial growth inhibition (E. coli K12 [2]; Peptide 100 nM, 16 bacteria/ml, 100% medium): − (Lagphase extended less than five times)
- Bacterial growth inhibition (E. coli K12 [2]; Peptide 100 nM, 160 bacteria/ml, 100% medium): − (Lagphase extended less than five times)
- Bacterial growth inhibition (E. coli K12 [2]; Peptide 100 nM, 1600 bacteria/ml, 100% medium): − (Lagphase extended less than five times)
- Bacterial growth inhibition (E. coli K12 [2]; Peptide 300 nM, 4.0 × 10^3 bacteria/ml, 10% medium): − (Lagphase extended less than five times;)
- Bacterial growth inhibition (E. coli K12 [2]; Peptide 300 nM, 4.0 × 10^4 bacteria/ml, 10% medium): − (Lagphase extended less than five times;)
- Bacterial growth inhibition (E. coli K12 [2]; Peptide 300 nM, 7.9 × 10^3 bacteria/ml, 10% medium): − (Lagphase extended less than five times;)
- Bacterial growth inhibition (E. coli K12 [2]; Peptide 300 nM, 16 bacteria/ml, 100% medium): − (Lagphase extended less than five times)
- Bacterial growth inhibition (E. coli K12 [2]; Peptide 300 nM, 160 bacteria/ml, 100% medium): − (Lagphase extended less than five times)
- Bacterial growth inhibition (E. coli K12 [2]; Peptide 300 nM, 1600 bacteria/ml, 100% medium): − (Lagphase extended less than five times)
- Bacterial growth inhibition (E. coli K12 [2]; Peptide 500 nM, 4.0 × 10^3 bacteria/ml, 10% medium): − (Lagphase extended less than five times;)
- Bacterial growth inhibition (E. coli K12 [2]; Peptide 500 nM, 4.0 × 10^4 bacteria/ml, 10% medium): − (Lagphase extended less than five times;)
- Bacterial growth inhibition (E. coli K12 [2]; Peptide 500 nM, 7.9 × 10^3 bacteria/ml, 10% medium): − (Lagphase extended less than five times;)
- Bacterial growth inhibition (E. coli K12 [2]; Peptide 500 nM, 16 bacteria/ml, 100% medium): − (Lagphase extended less than five times)
- Bacterial growth inhibition (E. coli K12 [2]; Peptide 500 nM, 160 bacteria/ml, 100% medium): − (Lagphase extended less than five times)
- Bacterial growth inhibition (E. coli K12 [2]; Peptide 500 nM, 1600 bacteria/ml, 100% medium): − (Lagphase extended less than five times)
- Bacterial growth inhibition (E. coli K12 [2]; Peptide 700 nM, 4.0 × 10^3 bacteria/ml, 10% medium): − (Lagphase extended less than five times;)
- Bacterial growth inhibition (E. coli K12 [2]; Peptide 700 nM, 4.0 × 10^4 bacteria/ml, 10% medium): − (Lagphase extended less than five times;)
- Bacterial growth inhibition (E. coli K12 [2]; Peptide 700 nM, 7.9 × 10^3 bacteria/ml, 10% medium): − (Lagphase extended less than five times;)
- Bacterial growth inhibition (E. coli K12 [2]; Peptide 700 nM, 16 bacteria/ml, 100% medium): − (Lagphase extended less than five times)
- Bacterial growth inhibition (E. coli K12 [2]; Peptide 700 nM, 160 bacteria/ml, 100% medium): − (Lagphase extended less than five times)
- Bacterial growth inhibition (E. coli K12 [2]; Peptide 700 nM, 1600 bacteria/ml, 100% medium): − (Lagphase extended less than five times)
- Bacterial growth inhibition (E. coli K12 [2]; Peptide 900 nM, 4.0 × 10^3 bacteria/ml, 10% medium): − (Lagphase extended less than five times;)
- Bacterial growth inhibition (E. coli K12 [2]; Peptide 900 nM, 4.0 × 10^4 bacteria/ml, 10% medium): − (Lagphase extended less than five times;)
- Bacterial growth inhibition (E. coli K12 [2]; Peptide 900 nM, 7.9 × 10^3 bacteria/ml, 10% medium): − (Lagphase extended less than five times;)
- Bacterial growth inhibition (E. coli K12 [2]; Peptide 900 nM, 16 bacteria/ml, 100% medium): − (Lagphase extended less than five times)
- Bacterial growth inhibition (E. coli K12 [2]; Peptide 900 nM, 160 bacteria/ml, 100% medium): − (Lagphase extended less than five times)
- Bacterial growth inhibition (E. coli K12 [2]; Peptide 900 nM, 1600 bacteria/ml, 100% medium): − (Lagphase extended less than five times)
- Bacterial growth inhibition (E. coli K12 [2]; Peptide 1100 nM, 4.0 × 10^3 bacteria/ml, 10% medium): − (Lagphase extended less than five times;)
- Bacterial growth inhibition (E. coli K12 [2]; Peptide 1100 nM, 4.0 × 10^4 bacteria/ml, 10% medium): − (Lagphase extended less than five times;)
- Bacterial growth inhibition (E. coli K12 [2]; Peptide 1100 nM, 7.9 × 10^3 bacteria/ml, 10% medium): − (Lagphase extended less than five times;)
- Bacterial growth inhibition (E. coli K12 [2]; Peptide 1100 nM, 16 bacteria/ml, 100% medium): − (Lagphase extended less than five times)
- Bacterial growth inhibition (E. coli K12 [2]; Peptide 1100 nM, 160 bacteria/ml, 100% medium): − (Lagphase extended less than five times)
- Bacterial growth inhibition (E. coli K12 [2]; Peptide 1100 nM, 1600 bacteria/ml, 100% medium): − (Lagphase extended less than five times)
- Bacterial growth inhibition (E. coli K12 [2]; Peptide 1300 nM, 4.0 × 10^3 bacteria/ml, 10% medium): − (Lagphase extended less than five times;)
- Bacterial growth inhibition (E. coli K12 [2]; Peptide 1300 nM, 4.0 × 10^4 bacteria/ml, 10% medium): − (Lagphase extended less than five times;)
- Bacterial growth inhibition (E. coli K12 [2]; Peptide 1300 nM, 7.9 × 10^3 bacteria/ml, 10% medium): − (Lagphase extended less than five times;)
- Bacterial growth inhibition (E. coli K12 [2]; Peptide 1300 nM, 16 bacteria/ml, 100% medium): − (Lagphase extended less than five times)
- Bacterial growth inhibition (E. coli K12 [2]; Peptide 1300 nM, 160 bacteria/ml, 100% medium): − (Lagphase extended less than five times)
- Bacterial growth inhibition (E. coli K12 [2]; Peptide 1300 nM, 1600 bacteria/ml, 100% medium): − (Lagphase extended less than five times)
- Bacterial growth inhibition (E. coli K12 [2]; Peptide 1500 nM, 4.0 × 10^3 bacteria/ml, 10% medium): − (Lagphase extended less than five times;)
- Bacterial growth inhibition (E. coli K12 [2]; Peptide 1500 nM, 4.0 × 10^4 bacteria/ml, 10% medium): − (Lagphase extended less than five times;)
- Bacterial growth inhibition (E. coli K12 [2]; Peptide 1500 nM, 7.9 × 10^3 bacteria/ml, 10% medium): − (Lagphase extended less than five times;)
- Bacterial growth inhibition (E. coli K12 [2]; Peptide 1500 nM, 16 bacteria/ml, 100% medium): − (Lagphase extended less than five times)
- Bacterial growth inhibition (E. coli K12 [2]; Peptide 1500 nM, 160 bacteria/ml, 100% medium): − (Lagphase extended less than five times)
- Bacterial growth inhibition (E. coli K12 [2]; Peptide 1500 nM, 1600 bacteria/ml, 100% medium): − (Lagphase extended less than five times)
- Bacterial growth inhibition (E. coli K12 [2]; Peptide 2500 nM, 4.0 × 10^3 bacteria/ml, 10% medium): − (Lagphase extended less than five times;)
- Bacterial growth inhibition (E. coli K12 [2]; Peptide 2500 nM, 4.0 × 10^4 bacteria/ml, 10% medium): − (Lagphase extended less than five times;)
- Bacterial growth inhibition (E. coli K12 [2]; Peptide 2500 nM, 7.9 × 10^3 bacteria/ml, 10% medium): − (Lagphase extended less than five times;)
- Bacterial growth inhibition (E. coli K12 [2]; Peptide 2500 nM, 16 bacteria/ml, 100% medium): − (Lagphase extended less than five times)
- Bacterial growth inhibition (E. coli K12 [2]; Peptide 2500 nM, 160 bacteria/ml, 100% medium): − (Lagphase extended less than five times)
- Bacterial growth inhibition (E. coli K12 [2]; Peptide 2500 nM, 1600 bacteria/ml, 100% medium): − (Lagphase extended less than five times)
- Bacterial growth inhibition (E. coli K12 [2]; Peptide 5000 nM, 4.0 × 10^3 bacteria/ml, 10% medium): ((+)) (Lagphase extended less than five times, but still with growth curve effect)
- Bacterial growth inhibition (E. coli K12 [2]; Peptide 5000 nM, 4.0 × 10^4 bacteria/ml, 10% medium): ((+)) (Lagphase extended less than five times, but still with growth curve effect)
- Bacterial growth inhibition (E. coli K12 [2]; Peptide 5000 nM, 7.9 × 10^3 bacteria/ml, 10% medium): ((+)) (Lagphase extended less than five times, but still with growth curve effect)
- Bacterial growth inhibition (E. coli K12 [2]; Peptide 5000 nM, 16 bacteria/ml, 100% medium): − (Lagphase extended less than five times)
- Bacterial growth inhibition (E. coli K12 [2]; Peptide 5000 nM, 160 bacteria/ml, 100% medium): − (Lagphase extended less than five times)
- Bacterial growth inhibition (E. coli K12 [2]; Peptide 5000 nM, 1600 bacteria/ml, 100% medium): − (Lagphase extended less than five times)
- Bacterial growth inhibition (E. coli K12 [2]; Peptide 10000 nM, 4.0 × 10^3 bacteria/ml, 10% medium): ((+)) (Lagphase extended less than five times, but still with growth curve effect)
- Bacterial growth inhibition (E. coli K12 [2]; Peptide 10000 nM, 4.0 × 10^4 bacteria/ml, 10% medium): ((+)) (Lagphase extended less than five times, but still with growth curve effect)
- Bacterial growth inhibition (E. coli K12 [2]; Peptide 10000 nM, 7.9 × 10^3 bacteria/ml, 10% medium): ((+)) (Lagphase extended less than five times, but still with growth curve effect)
- Bacterial growth inhibition (E. coli K12 [2]; Peptide 10000 nM, 16 bacteria/ml, 100% medium): − (Lagphase extended less than five times)
- Bacterial growth inhibition (E. coli K12 [2]; Peptide 10000 nM, 160 bacteria/ml, 100% medium): − (Lagphase extended less than five times)
- Bacterial growth inhibition (E. coli K12 [2]; Peptide 10000 nM, 1600 bacteria/ml, 100% medium): − (Lagphase extended less than five times)
- Bacterial growth inhibition (E. coli K12 [2]; Peptide 15000 nM, 4.0 × 10^3 bacteria/ml, 10% medium): ((+)) (Lagphase extended less than five times, but still with growth curve effect)
- Bacterial growth inhibition (E. coli K12 [2]; Peptide 15000 nM, 4.0 × 10^4 bacteria/ml, 10% medium): ((+)) (Lagphase extended less than five times, but still with growth curve effect)
- Bacterial growth inhibition (E. coli K12 [2]; Peptide 15000 nM, 7.9 × 10^3 bacteria/ml, 10% medium): ((+)) (Lagphase extended less than five times, but still with growth curve effect)
- Bacterial growth inhibition (E. coli K12 [2]; Peptide 15000 nM, 16 bacteria/ml, 100% medium): − (Lagphase extended less than five times)
- Bacterial growth inhibition (E. coli K12 [2]; Peptide 15000 nM, 160 bacteria/ml, 100% medium): − (Lagphase extended less than five times)
- Bacterial growth inhibition (E. coli K12 [2]; Peptide 15000 nM, 1600 bacteria/ml, 100% medium): − (Lagphase extended less than five times)
- Bacterial growth inhibition (E. coli K12 [2]; Peptide 20000 nM, 4.0 × 10^3 bacteria/ml, 10% medium): +
- Bacterial growth inhibition (E. coli K12 [2]; Peptide 20000 nM, 4.0 × 10^4 bacteria/ml, 10% medium): ((+)) (Lagphase extended less than five times, but still with growth curve effect)
- Bacterial growth inhibition (E. coli K12 [2]; Peptide 20000 nM, 7.9 × 10^3 bacteria/ml, 10% medium): +
- Bacterial growth inhibition (E. coli K12 [2]; Peptide 20000 nM, 16 bacteria/ml, 100% medium): (+) (Significantly extended lagphase, (more than five times))
- Bacterial growth inhibition (E. coli K12 [2]; Peptide 20000 nM, 160 bacteria/ml, 100% medium): − (Lagphase extended less than five times)
- Bacterial growth inhibition (E. coli K12 [2]; Peptide 20000 nM, 1600 bacteria/ml, 100% medium): − (Lagphase extended less than five times)
- Peptide concentration giving total inhibition of growth (E. coli K12 [2]; cultures with 7.9×10^3 cells/ml, peptide without PNA): at least 20,000 nM
- Peptide concentration at which minimal signs of growth inhibition were detected (E. coli K12 [2]; peptide without PNA): ≥ 5,000 nM
